Assay results as given in patent publication US20110263642A1, “METHODS FOR TREATMENT OF MULTIPLE SCLEROSIS” (FibroGen, Inc., priority 2008, published 2011).

Tested on: EAE animal model of chronic progressive multiple sclerosis
Test: Chronic progressive EAE induced by MOG35-55 and pertussis toxin in mice, neurological scoring to day 35
Assay type: in vivo, C57BL/6 mice
Details: for treated animals in which development of EAE disease was prevented / No. of Animals Showing No Disease Activity: through day 35
Description: A chronic progressive model of EAE is an accepted animal model of human chronic progressive multiple sclerosis (MS). In this model, induction of chronic progressive EAE occurs following injections of myelin oligodendrocyte glycoprotein (MOG). Approximately 8 to 14 days after injection of MOG, animals develop chronic progressive paralysis similar to that observed in humans with chronic progressive MS.
Female C57BL/6 mice (8-10 weeks old) were used in this study (Taconic Farm, CA). Compounds of the present invention were formulated in 0.5% carboxymethyl cellulose (CMC) with 0.1% Polysorbate 80 to achieve a final concentration of either 1.2 mg/ml or 4.0 mg/ml. FTY-720 was also formulated in 0.5% carboxymethyl cellulose (CMC) with 0.1% Polysorbate 80 to achieve a final concentration of 2.0 mg/ml.
Induction of chronic progressive EAE by injection with myelin oligodendrocyte glycoprotein (MOG) was performed as follows. Mice were injected subcutaneously with 200 μg of myelin oligodendrocyte glycoprotein (MOG35-55) peptide emulsion in both sides of their pectoral regions (50 μl each side). At 8 hours and 48 hr after immunization with MOG, animals were injected intraperitoneally with 400 ng of pertussis toxin (PT) in 100 μl of saline. Control mice received both injections with an equivalent volume of saline without MOG or PT.
[…] FTY-720 (10 mg/kg) was used in this study as a positive control and was administered daily from day 0 to day 35.
Neurological scoring was performed daily from day 7 to day 35 following MOG injection. Grading of disease severity (i.e., disease score) was based on the following observations performed by two different observers: 0=no abnormality; 1=distal weakness of the tail (limp tail); 2=limp tail and weakness of hind legs (mild paraparesis); 3=limp tail and complete paralysis of hind legs or paralysis in one of one front leg and one hind leg (moderate paraparesis); 4=limp tail, complete hind leg and partial front leg paralysis (moderate quadraparesis); 5=complete hind and front leg paralysis (moribund). Analysis of variance (ANOVA) was performed on data from the measured (neurological score) parameters. p value≦0.05 were considered significant.

## N#Cc1nc(C(=O)NCC(=O)O)c(O)c2c(Oc3ccccc3)cccc12 [Compound A, [(1-Cyano-4-hydroxy-5-phenoxy-isoquinoline-3-carbonyl)-amino]-acetic acid]
10 mg/kg as printed
  treated animals in which development of EAE disease was prevented: 40%
10 mg/kg or 30 mg/kg as printed, p.o. three times a week, day 0-35, FIG. 5
  disease severity compared to vehicle-treated control EAE animals: reduction in disease severity at all timepoints
30 mg/kg as printed, p<0.05
  treated animals in which development of EAE disease was prevented: 43%
First EAE/Cmpd A row, dose not printed in Table 4 (Table 3: 6 mg/kg/d, 3 times a week)
  No. of Animals Showing No Disease Activity: 6/15
Second EAE/Cmpd A row, dose not printed in Table 4 (Table 3: 20 mg/kg/d, 3 times a week)
  No. of Animals Showing No Disease Activity: 6/14
